Test results from patent publication US4481218A, “3-(2,2,2-Trimethylhydrazinium)propionate and method for the preparation and use thereof” (Institut Organicheskogo Sinteza Akademii Nauk Latviiskoi SSR, priority 1978, dated 1984).

Assays:
chicks [1] = experiment: growth stimulator efficiency in chicks, 0.02% in feedstuff (Example 6, Table 1); type: in vivo; conditions: 0.02% by weight in feedstuff
Method: (§1) The growth stimulator for animals and fowl containing 3-(2,2,2-trimethylhydrazinium)-propionate as the active principle is tested for efficiency. The test is conducted in chicks of 6 days of age, the test group consisting of 50 chicks and the control group--50 chicks. The test chicks were fed with a feedstuff containing 0.02% by weight of the active principle, the control group--only basic diet without the addition of the active principle. The chicks' diet contained, % by weight: barley--20, wheat--6, corn--40, sunflower and soya-bean grist--19, fish flour--7, meat-bone flour--3, yeast--5. One kilogram of the feedstuff contained 1.25 feeding unit, 3,135 kCal of exchange energy, 21% of a crude protein, 4% of crude cellulose and 197 g of digestable protein.

young rats = experiment: growth stimulator efficiency in young rats (Example 10, Table 5); type: in vivo, rat
Method: (§2) The efficiency of the growth stimulator was studied on young rats. The experiment was carried out with nondescript young rats weighting about 75 g in groups of 30 animals in each. The growth stimulator was administered perorally to each rat as an aqueous solution at a rate of from 0.1 to 0.001% by weight of the consumed daily diet. The administration of the growth stimulator was effected every day during 10 days. The observation period was 20 days; the rats were weighed after every 4 days. […] On completion of the experiment the animals were killed and the parenchymatous organs and peripheral blood were analyzed.

solubility = type: physicochemical
Method: The compound according to the present invention, viz. 3-(2,2,2-trimethylhydrazinium)propionate comprises a colourless crystalline powder with a melting point of 254°-256° C. (from ethanol). […] (p.p.m.): 6.70 singlet, (CH3)3 N; 6.89, triplet, CH2,

pubertal rats = experiment: growth stimulator efficiency in pubertal rats (Example 11, Table 6); type: in vivo, rat
Method: as §2
The growth stimulator efficiency was studied on pubertal rats. The experiment conditions were similar to those described in the foregoing Example 10.

animals and fowl = experiment: specific (growth-stimulating) activity on animals and fowl, general; type: in vivo
Excerpt: (§3) The study of specific activity of 3-(2,2,2-trimethylhydrazinium)-propionatewas effected on various animals: mice, rats, pigs, cattle, chickens, goslings, turkey poults and ducklings. The growth-controlling activity of this compound relative to plats has been studied on barley, oats, rye and wheat.

[2] = system: barley, oats, rye and wheat; experiment: growth-controlling activity on plants; type: in vivo
Excerpt: as §3

white-breed young pigs = experiment: growth stimulator efficiency in white-breed young pigs (Example 9, Table 4); type: in vivo, pig; conditions: 0.02% by weight, 122 days
Method: The efficiency of the growth stimulator was tested on white-breed young pigs deprived of mother's milk with the body weight of about 20 kg, […], in each group.
The young pigs were in the same pig sty and serviced by one operator; all of the animals were on the same diet consisting of barley flour, green mass of a vetch-oat mixture and whey. The animals were fed two times a day with free watering. To the feedstuff of the test group there were added 200 mg of 3-(2,2,2-trimethylhydrazinium)propionate per 1 kg of dry substance of the feed-stuff (0.02% by weight of the active principle).

white mice = experiment: in vivo; conditions: mouse
Method: (§4) The toxicological study of 3-(2,2,2-trimethylhydrazinium)-propionate on white mice weighing 20-25 g has shown that with a single peroral administration to the animals in doses of up to 23,000 mg/kg the preparation causes no death of the animals.

in vivo = experiment: in vivo; design: species or system white mice; conditions: mouse, ip
Method: as §4

[3] = system: microbless pig mini-sucklings; experiment: growth stimulant efficiency in microbless pig mini-sucklings (Example 8, Table 3); type: in vivo
Method: The efficiency of the growth stimulant for animals according to the present invention was tested in feeding of microbless animals. The test was carried out in microbless pig mini-sucklings grown without under sterile conditions in a comparison with pig mini sucklings grown keeping to the requirements of sterile conditions, since birth and to the age of two-months, a feedstuff containing 0.04% by weight of the active principle. Their growth was compared to that of 10 sucklings grown without keeping to sterility conditions and the development of 7 microbless pig sucklings. By the end of the experiment the test pig sucklings were 17.2% heavier than the microbless pig sucklings given no growth stimulant and 18.2% heavier than the sucklings grown under nonsterile conditions and given no growth stimulator.

chicks [4] = experiment: growth stimulant efficiency in chicks, 0.04% in feedstuff (Example 7, Table 2); type: in vivo; conditions: 0.04% by weight in feedstuff
Method: as §1
The experiment for testing efficiency of the growth stimulant for animals and fowl according to the present invention was carried out following the procedure similar to that described in the foregoing Example 6; added to the feedstuff was 0.04% by weight of the active principle based on the feedstuff weight. By the end of the 34-days' period the chicks of the test groups fed with the growth stimulant were 12.9% heavier.

[5] = 0.001% of the active principle, day 4
[6] = 0.001% of the active principle, day 8
[7] = 0.001% of the active principle, day 12
[8] = 0.001% of the active principle, day 16
[9] = 0.001% of the active principle, day 20
[10] = 0.01% of the active principle, day 4
[11] = 0.01% of the active principle, day 8
[12] = 0.01% of the active principle, day 12
[13] = 0.01% of the active principle, day 16
[14] = 0.01% of the active principle, day 20

SMILES: C[N+](C)(C)NCCC(=O)[O-] [3-(2,2,2-trimethylhydrazinium)-propionate]
- Average body weight of chicks, aged 30 days (chicks [1]): 289.4 g
- weight gain compared to the control chicks (chicks [1]; 34 days): 7.7%
- Average gain for the test time (chicks [1]; 34 days, control 364.5 ± 10.1): 392.7
- Average body weight of chicks, aged 40 days (chicks [1]; end of 34 days, control 412.2 g): 440.5 g
- Average body weight of chicks, aged 6 days (chicks [1]; test beginning (6 days of age)): 47.8 g
- Percentage to the control (chicks [1]; average gain, control = 100.0): 107.7%
- increase of body weight gain of the rats (young rats; 0.001% by weight of the daily diet): 12.5%
- Weight on the day of weighing (young rats; [5]): 76 g
- Weight on the day of weighing (young rats; [6]): 99 g
- Weight on the day of weighing (young rats; [7]): 131 g
- Weight on the day of weighing (young rats; [8]): 154 g
- Weight on the day of weighing (young rats; [9]): 164 g
- increase of body weight gain of the rats (young rats; 0.01% by weight of the daily diet): 12%
- Weight on the day of weighing (young rats; [10]): 79 g
- Weight on the day of weighing (young rats; [11]): 93 g
- Weight on the day of weighing (young rats; [12]): 125 g
- Weight on the day of weighing (young rats; [13]): 139 g
- Weight on the day of weighing (young rats; [14]): 158 g
- effect on weight gain of the rats (young rats; 0.1% by weight of the daily diet): substantially did not affect the weight gain
- Weight on the day of weighing (young rats; 0.1% of the active principle, day 4): 76 g
- Weight on the day of weighing (young rats; 0.1% of the active principle, day 8): 95 g
- Weight on the day of weighing (young rats; 0.1% of the active principle, day 12): 98 g
- Weight on the day of weighing (young rats; 0.1% of the active principle, day 16): 107 g
- Weight on the day of weighing (young rats; 0.1% of the active principle, day 20): 129 g
- pathology of parenchymatous organs and peripheral blood (young rats; 0.1 to 0.001% by weight of the daily diet, perorally 10 days): No pathology was observed
- solubility in ethanol and methanol (solubility; ethanol and methanol): well soluble
- solubility in water (solubility; water): very readily soluble
- Weight on the weighing day (pubertal rats; [5]): 175 g
- Weight on the weighing day (pubertal rats; [6]): 189 g
- Weight on the weighing day (pubertal rats; [7]): 210 g
- Weight on the weighing day (pubertal rats; [8]): 231 g
- Weight on the weighing day (pubertal rats; [9]): 248 g
- Weight on the weighing day (pubertal rats; [10]): 169 g
- Weight on the weighing day (pubertal rats; [11]): 175 g
- Weight on the weighing day (pubertal rats; [12]): 189 g
- Weight on the weighing day (pubertal rats; [13]): 215 g
- Weight on the weighing day (pubertal rats; [14]): 229 g
- Weight on the weighing day (pubertal rats; 0.1% of the principle, day 4): 155 g
- Weight on the weighing day (pubertal rats; 0.1% of the principle, day 8): 161 g
- Weight on the weighing day (pubertal rats; 0.1% of the principle, day 12): 174 g
- Weight on the weighing day (pubertal rats; 0.1% of the principle, day 16): 187 g
- Weight on the weighing day (pubertal rats; 0.1% of the principle, day 20): 203 g
- body weight gain (pubertal rats; active principle 0.001% by weight of the dry feedstuff): 13.5%
- body weight gain (pubertal rats; active principle 0.101% (so in the source) by weight of the dry feedstuff): 9%
- growth-stimulating activity (animals and fowl; animals and fowl): clearly pronounced growth-stimulating activity
- daily weight gain (animals and fowl; depending on the variety of animals and fowl): 8-24%
- metabolism (animals and fowl; test animals and fowl): metabolism is improved
- reduction of the rate of feedstock consumption per weight gain unit (animals and fowl; test animals and fowl): 7-15%
- specific gravity of grain crops ([2]; grain crops): increased
- yield gain of crops ([2]; grain crops): 15-30%
- increase in the stem diameter of crops ([2]; oats, barley, rye, wheat): 15%
- stability against lodging ([2]; oats, barley, rye, wheat): improving their stability against lodging
- growth-controlling effect ([2]; plants): clearly pronounced growth-controlling effect
- Average daily weight gain, percent of the control (white-breed young pigs): 112.4% of the control
- Feedstuff consumption per 1 kg of the body weight gain, % of control (white-breed young pigs): 92.9 % of control
- weight gain higher as compared to the control group animals (white-breed young pigs): 7.4 kg
- Feedstuff consumption per 1 kg of the body weight gain (white-breed young pigs; control 4.38): 4.07 feeding units
- Body weight gain during the test period (white-breed young pigs; control 59.0 ± 2.1): 66.4 ± 3.6 kg
- Average body weight by the test end (white-breed young pigs; control 74.0 ± 3.2): 88.2 ± 4.0 kg
- Feedstuff consumption during the test period (white-breed young pigs; control 285.5): 270.7 feeding units
- Average daily weight gain (white-breed young pigs; control 484 ± 17): 544 ± 32 g
- reduction of consumption of feeding units per kilogram of the weight gain (white-breed young pigs; vs control): 7.1%
- single peroral dose causing no death of the animals (white mice): up to 23,000 mg/kg
- NOAEL (in vivo): ≥ 10000 mg/kg
- heavier than the microbless pig sucklings given no growth stimulant ([3]; 0.04% by weight, 2 months' age): 17.2%
- heavier than the sucklings grown under nonsterile conditions and given no growth stimulator ([3]; 0.04% by weight, 2 months' age): 18.2%
- Animal weight at the 2-months' age ([3]; microbless mini-pigs, 0.04% by weight of feedstuff, untreated microbless 3,271 ± 385, ordinary 3,244 ± 335): 3,833 ± 348 g
- chicks heavier by the end of the 34-days' period (chicks [4]): 12.9%
- Average body weight of chicks, aged 30 days (chicks [4]; control 261.9): 268.9 g
- Average mass gain for the test time (chicks [4]; control 313 ± 3): 353 ± 8 g
- Average body weight of chicks, aged 40 days (chicks [4]; control 364.3): 404.8 g
- Average body weight of chicks, aged 6 days (chicks [4]; test beginning): 51.0 g
- Percentage to the control (chicks [4]; mass gain, control = 100.0): 112.9%
